Experimental data as given in patent US20090209615A1, “INHIBITORS OF MATRIX METALLOPROTEINASES TO TREAT NEUROLOGICAL DISORDERS” (priority 2004, published 2009).
“Also recorded” adds a separate entry of the source. Where two headings read alike, the source gives them in different places.

How the values were obtained:
R-proMMP-9 = R-proMMP-9 (Homo sapiens, UniProt P14780); assay: Activation of R-proMMP-9 in vitro (gelatin zymography, fluorogenic peptide cleavage)
[1] = system: C57BL/6J mice, MCA occlusion/reperfusion; assay: Transient focal cerebral ischemia (MCA occlusion/reperfusion): infarct volume and neurological deficits; assay type: in vivo
[2] = Physiological variables and regional cerebral blood flow in MCAO mice; details: for Ca^2+ / Glucose / MABP / Na^+ / PCO2 / PO2 / pH: mean ± SEM (n = 5); for regional cerebral blood flow (rCBF), laser Doppler flowmetry: MCAO and reperfusion; for pH: arterial blood
MMP-9 [3] = assay: MMP-9 activity in ischemic mouse brain after treatment in vivo (in situ zymography, gelatin zymography, Western blot); set-up: species or system C57BL/6J mice
MMP-9 [4] = molecular target: T1, MMP-9 (Mus musculus, UniProt P41245); assay: as above; set-up: species or system C57BL/6J mice; details: SB-3CT-treated mice, 2-hr MCA occlusion and 24-hr reperfusion
T1 construct: from tissue; host or cells: brain of C57BL/6J mice after MCA occlusion/reperfusion

laminin = assay: Laminin degradation in the ischemic hemisphere after MCAO/R (Western blot, immunostaining); assay type: in vivo, mouse; details: for laminin degradation in the ischemic hemisphere (Western blot, 51 kDa fragment): SB-3CT-treated mice after transient MCAO/R
cerebrocortical neurons = assay: Neuronal apoptosis induced by SNOC-activated MMP-9 in cerebrocortical cultures; assay type: cell-based; details: R-proMMP-9 pre-activated by SNOC, 18 hours
[5] = system: MMP gelatinolytic activity in the ischemic cortex; assay: In situ zymography of ischemic brain sections treated with MMP inhibitors; assay type: biochemical, mouse; details: brain sections after MCA occlusion/reperfusion treated with inhibitor
Method: In situ zymography with the MMP fluorogenic substrate DQ-gelatin-FITC (Molecular Probes) was performed on fresh cryostat sections of mouse brains harvested after MCA ischemia and reperfusion (A to J). […] A, C, E, and G represent fluorogenic substrate (green), reflecting MMP activity in situ. B, D, F, H, I, and J are merged images of the fluorogenic substrate and Hoechst dye counterstaining to identify nuclei.
A, In situ zymography with the MMP fluorogenic substrate DQ-gel (green in top panels) merged with nuclear DNA staining by Hoechst dye (blue plus green in bottom panels).

MMP-9 [6] = molecular target: T2, MMP-9 (Homo sapiens, UniProt P14780); assay: Ex vivo degradation of neuronal laminin by exogenous MMP-9 in mouse-brain sections; assay type: biochemical
Target sequence in this assay (P14780 107-707 limits assumed, species assumed): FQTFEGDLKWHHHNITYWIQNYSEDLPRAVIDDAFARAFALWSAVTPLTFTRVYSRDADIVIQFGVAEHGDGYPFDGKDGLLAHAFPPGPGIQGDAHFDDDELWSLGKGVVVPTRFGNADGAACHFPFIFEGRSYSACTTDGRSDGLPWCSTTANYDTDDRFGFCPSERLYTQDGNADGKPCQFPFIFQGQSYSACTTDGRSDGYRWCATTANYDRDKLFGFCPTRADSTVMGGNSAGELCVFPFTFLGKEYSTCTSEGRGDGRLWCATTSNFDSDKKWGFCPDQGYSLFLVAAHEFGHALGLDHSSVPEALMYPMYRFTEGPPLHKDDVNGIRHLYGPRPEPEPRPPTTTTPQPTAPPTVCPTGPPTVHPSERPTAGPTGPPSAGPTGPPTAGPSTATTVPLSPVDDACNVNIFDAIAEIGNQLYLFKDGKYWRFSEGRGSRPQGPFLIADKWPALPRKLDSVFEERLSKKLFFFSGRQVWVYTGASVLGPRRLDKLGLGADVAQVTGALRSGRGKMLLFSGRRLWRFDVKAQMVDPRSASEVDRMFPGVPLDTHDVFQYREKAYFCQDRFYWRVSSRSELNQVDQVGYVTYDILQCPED
Method: Purified mouse Engelbreth-Holm-Swarm laminin (ms EHS Ln) served as a molecular marker for laminin immunoblotting. The membrane was reblotted with anti-actin antibody to ensure equal protein loading in each lane.
Ex vivo laminin degradation and Western blots. Brain lysates (50 mg of total protein in TBS with 0.05% Brij 35) were incubated overnight at 37° C. with activated MMP-9, latent preform of MMP-9 (proMMP-9), or the catalytic domain of membrane type 1 (MT1)-MMP. […] Laminin and MMP-9 were analyzed by immunoblotting using rabbit pan-laminin (pan-Ln) and MMP-9 antibodies (from Sigma (St. Louis, Mo.) and Calbiochem (La Jolla, Calif.), respectively), followed by peroxidase-conjugated anti-rabbit IgG antibody. Peroxidase was visualized by enhanced chemiluminescence (Amersham Biosciences).

[7] = Stability of S-nitrosothiols (NAT conversion from DAN)
MMP-9 [8] = molecular target: T2, MMP-9; details: high-affinity site for TIMPs, Olson et al. 1997; cited from earlier work
Target sequence in this assay (P14780 107-707 limits assumed): as the sequence (P14780 107-707 limits assumed, species assumed) above

MMP-2 = molecular target: T3, MMP-2 (Homo sapiens, UniProt P08253); details: high-affinity site for TIMPs, Olson et al. 1997; cited from earlier work
T3 sequence (P08253 110-660): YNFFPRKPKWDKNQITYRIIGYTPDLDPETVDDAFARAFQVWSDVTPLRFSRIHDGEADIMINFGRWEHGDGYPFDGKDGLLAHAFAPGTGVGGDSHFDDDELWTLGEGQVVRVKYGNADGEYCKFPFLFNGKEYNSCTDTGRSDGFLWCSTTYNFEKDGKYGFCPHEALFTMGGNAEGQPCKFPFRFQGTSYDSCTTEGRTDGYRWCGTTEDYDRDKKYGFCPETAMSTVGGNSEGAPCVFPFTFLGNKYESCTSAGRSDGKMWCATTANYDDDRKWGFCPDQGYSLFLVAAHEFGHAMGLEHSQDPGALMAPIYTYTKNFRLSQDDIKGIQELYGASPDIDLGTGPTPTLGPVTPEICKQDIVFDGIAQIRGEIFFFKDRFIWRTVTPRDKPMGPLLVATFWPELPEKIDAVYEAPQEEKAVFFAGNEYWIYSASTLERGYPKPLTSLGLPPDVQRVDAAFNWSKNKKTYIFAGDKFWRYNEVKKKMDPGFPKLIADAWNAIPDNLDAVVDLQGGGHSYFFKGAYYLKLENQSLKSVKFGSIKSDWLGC

Sequence of R-proMMP-9 (P14780 20-444 limits assumed): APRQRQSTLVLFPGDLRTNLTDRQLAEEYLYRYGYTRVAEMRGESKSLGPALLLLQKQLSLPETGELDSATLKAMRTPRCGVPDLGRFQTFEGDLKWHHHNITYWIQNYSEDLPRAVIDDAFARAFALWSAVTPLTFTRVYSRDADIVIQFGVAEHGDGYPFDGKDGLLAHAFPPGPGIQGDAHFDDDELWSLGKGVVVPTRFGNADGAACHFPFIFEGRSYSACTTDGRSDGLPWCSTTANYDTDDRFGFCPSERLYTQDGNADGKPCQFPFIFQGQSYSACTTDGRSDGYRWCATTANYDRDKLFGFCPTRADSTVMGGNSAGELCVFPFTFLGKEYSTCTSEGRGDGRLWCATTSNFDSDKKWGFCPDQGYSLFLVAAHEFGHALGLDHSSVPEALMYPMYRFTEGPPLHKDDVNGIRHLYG

Q: Which melting point does the source give for `O=S(=O)(CCC1CO1)c1ccc(Oc2ccccc2)cc1` (stereo not shown) [Compound 5, 2-(4-Phenoxyphenylsulfonyl)ethyloxirane] here?
A: 75 to 77 °C

Q: For `O=NO` [acidified sodium nitrite, sodium nitrite], which “conversion of R-proMMP-9 into the activated form (gelatin zymography)” value (R-proMMP-9) is on record?
A: partial conversion

Q: What does the source list for `O=S(=O)(CC1CS1)c1ccc(Oc2ccccc2)cc1` (stereo not shown) [Compound 1, (4-Phenoxyphenylsulfonyl)methylthiirane]?
A: infarct volume (TTC staining) ([1]; 25 mg/kg i.p. twice, 30 minutes before MCAO and 2 hours after MCAO, 2-hour MCAO, 24-hour reperfusion, vs vehicle, P<0.004 (FIG. 9), listed as SB3CT): decreases infarct volume; also recorded: protects the ischemic brain; infarct volume (TTC staining) ([1]; 25 mg/kg i.p., 24 h after reperfusion, vs vehicle-treated controls, p<0.001 (FIG. 14C)): decreased infarct volume; infarct volume ([1]; 25 mg/kg i.p., administration 6 h after ischemia, compared with 55% in vehicle-treated animals): 40%; infarct volume ([1]; 25 mg/kg i.p., first injection 2 h postischemic, second 3 h later, 24 h after reperfusion): 30 % of control; infarct volume ([1]; 25 mg/kg i.p., preischemic injection (30 min before ischemia, second immediately before reperfusion), 24 h after reperfusion): 30 % of control; neurological behavioral score ([1]; 24 h after MCA occlusion/reperfusion, vs vehicle-treated controls, p<0.02 (FIG. 14D)): significantly improved neurological function; neurological behavioral outcomes (deficit score 0-4) ([1]; 24 hours after focal MCAO and reperfusion, vs vehicle, P<0.01 (FIG. 9C), listed as SB3CT): significantly reduced neurological deficit outcomes; also recorded: improved; behavioral scores (five-point scale) ([1]; treated 2 h after ischemia, 24 h after reperfusion): significant improvement in behavioral scores; behavioral scores (five-point scale) ([1]; treated before ischemia, 24 h after reperfusion): significant improvement in behavioral scores; Ca^2+ ([2]; After MCAO): 1.100 ± 0.074 mmol/L; Glucose ([2]; After MCAO): 154.3 ± 12.6 mg/dL; MABP ([2]; After MCAO): 76.12 ± 2.89 mmHg; Na^+ ([2]; After MCAO): 157.7 ± 2.0 mmol/L; PCO2 ([2]; After MCAO): 43.90 ± 5.28 mmHg; PO2 ([2]; After MCAO): 245.4 ± 24.0 mmHg; Ca^2+ ([2]; Before MCAO): 1.150 ± 0.021 mmol/L; Glucose ([2]; Before MCAO): 160.7 ± 13.2 mg/dL; MABP ([2]; Before MCAO): 78.68 ± 3.17 mmHg; Na^+ ([2]; Before MCAO): 155.7 ± 1.8 mmol/L; PCO2 ([2]; Before MCAO): 40.70 ± 7.828 mmHg; PO2 ([2]; Before MCAO): 230.8 ± 31.7 mmHg; Ca^2+ ([2]; During MCAO): 1.117 ± 0.081 mmol/L; Glucose ([2]; During MCAO): 162.70 ± 13.3 mg/dL; MABP ([2]; During MCAO): 79.49 ± 3.48 mmHg; Na^+ ([2]; During MCAO): 157.20 ± 0.5 mmol/L; PCO2 ([2]; During MCAO): 44.95 ± 14.55 mmHg; PO2 ([2]; During MCAO): 214.5 ± 10.3 mmHg; regional cerebral blood flow (rCBF), laser Doppler flowmetry ([2]; vs vehicle-treated controls, listed as SB3CT): no significant differences; also recorded: unaffected; regional cerebral blood flow (rCBF), laser Doppler flowmetry ([2]; vs vehicle-treated controls, listed as SB-3CT): no significant differences; pH ([2]; After MCAO): 7.170 ± 0.027; pH ([2]; Before MCAO): 7.313 ± 0.060; pH ([2]; During MCAO): 7.106 ± 0.025; physiological parameters including arterial blood gases and glucose ([2]; vs vehicle-treated controls): did not affect; MMP gelatinolytic activity in the ischemic region (in situ zymography, deconvolution microscopy) (MMP-9 [3]; SB-3CT-treated mice vs vehicle-treated control, after MCAO/reperfusion): significantly reduced; active MMP-9 in ischemic brain (gelatin zymography, Western blot) (MMP-9 [4]; listed as SB3CT): attenuated the increase; also recorded: can prevent activation of MMP-9; proMMP-9 in ischemic brain (gelatin zymography, Western blot) (MMP-9 [4]; listed as SB3CT): attenuated the increase; active MMP-9 in ischemic brain (gelatin zymography, Western blot) (MMP-9 [4]; listed as SB-3CT): attenuated the increase; also recorded: significantly decreased; proMMP-9 in ischemic brain (gelatin zymography, Western blot) (MMP-9 [4]; listed as SB-3CT): attenuated the increase; also recorded: also decreased; laminin degradation in the ischemic hemisphere (Western blot, 51 kDa fragment) (laminin; listed as SB3CT): attenuated laminin degradation products; laminin degradation in the ischemic hemisphere (Western blot, 51 kDa fragment) (laminin; listed as SB-3CT): decreased laminin degradation; also recorded: reduced

Q: Which results are given for `CNC(=O)[C@H](Cc1c[nH]c2ccccc12)NC(=O)[C@@H](CC(=O)NO)CC(C)C` [GM6001]?
A: neuronal apoptosis (cerebrocortical neurons): abrogated the effect; also recorded: blocked the neuronal cell death; MMP gelatinolytic activity in the ischemic cortex (in situ zymography) [5]: reduced; also recorded: abrogated; also recorded: can prevent activation of MMP-9; degradation of neuronal laminin by activated MMP-9 (MMP-9 [6]): significantly reduced laminin degradation; also recorded: inhibited MMP-9 proteolysis of neuronal laminin

Q: Which “MMP gelatinolytic activity in the ischemic cortex (in situ zymography)” value [5] does the source give for `c1cnc2c(c1)ccc1cccnc12` [1,10-phenanthroline] here?
A: reduced; also recorded: abrogated

Q: And the “MMP gelatinolytic activity in the ischemic cortex (in situ zymography)” value ([5]; listed as 1/10-phenanthroline)?
A: can prevent activation of MMP-9

Q: Which “conversion of R-proMMP-9 into the activated form (gelatin zymography)” value (R-proMMP-9; R-proMMP-9 100 ng/ml, 200 μM agent, 18 hours, room temperature) does the source give for `N[C@@H](CSN=O)C(=O)O` [SNOC, S-nitrosocysteine] here?
A: partial conversion

Q: What about the “initial velocity of R-proMMP-9 activation” value (R-proMMP-9; cleavage of synthetic fluorogenic peptide substrate) of the same compound?
A: 0.88 µM/h

Q: What about the half-life at 200 μM [7] of the same compound?
A: < 10 min

Q: And the decayed ([7]; within 15 min of incubation)?
A: over 95%

Q: What does the source list for `O=[N+]([O-])c1cccc2c(Br)n[nH]c12` [3-bromo-7-nitroindazole, reference compound]?
A: MMP activity in the ischemic cortex (in situ zymography) (MMP-9 [3]; 30 mg/kg body weight i.p. prior to ischemia, wild-type mice): abrogated; laminin degradation in the ischemic cortex (laminin immunoreactivity) (laminin; wild-type mice treated with nNOS inhibitor, after MCA occlusion/reperfusion): attenuated; also recorded: blockage of laminin degradation

Q: With “TIMP-1: endogenous cellular protein inhibitor of MMPs (tissue inhibitor of metalloproteinases)” as the compound, how does the Ki (MMP-9 [8]) read?
A: 0.024 ± 0.004 µM

Q: And the Ki (MMP-2)?
A: 0.029 ± 0.005 µM
